Test system: MCH receptors
Assay: MCH receptor activity class (method not given)
Conditions: class by percent of control at 10^-7 M or IC50

SMILES	class
Cc1onc(-c2c(F)cccc2Cl)c1C(=O)N[C@H]1CC[C@@H](Nc2nccc(N(C)C)n2)CC1 [compound 318]	2 (Class 2: The value of percent of control at 10^−7 M was from 40% to 60% or the value of IC′50 was from 50 nM to 200 nM.)
CC(C)S(=O)(=O)c1csc(C(=O)N[C@H]2CC[C@@H](Nc3nccc(N(C)C)n3)CC2)c1Cl [compound 319]	3 (Class 3 The value of percent of control at 10^−7 M was more than 60% or the value of IC50 was more than 200 nM.)
CN(C)c1ccnc(N[C@H]2CC[C@@H](NC(=O)c3ccc([N+](=O)[O-])cc3Cl)CC2)n1 [compound 320]	3 (Class 3 The value of percent of control at 10^−7 M was more than 60% or the value of IC50 was more than 200 nM.)
Cc1cc(C(=O)N[C@H]2CC[C@@H](Nc3nccc(N(C)C)n3)CC2)n(C)n1 [compound 321]	3 (Class 3 The value of percent of control at 10^−7 M was more than 60% or the value of IC50 was more than 200 nM.)
COc1ccc(C(=O)N[C@H]2CC[C@@H](Nc3nccc(N(C)C)n3)CC2)cc1OC [compound 322]	3 (Class 3 The value of percent of control at 10^−7 M was more than 60% or the value of IC50 was more than 200 nM.)
CN(C)c1ccnc(N[C@H]2CC[C@@H](NC(=O)c3cccc(F)c3)CC2)n1 [compound 323]	3 (Class 3 The value of percent of control at 10^−7 M was more than 60% or the value of IC50 was more than 200 nM.)
CN(C)c1ccnc(N[C@H]2CC[C@@H](NC(=O)c3ccc(F)c(C(F)(F)F)c3)CC2)n1 [compound 324, N-(cis-4-{[4-(dimethylamino)pyrimidin-2-yl]amino}cyclohexyl)-4-fluoro-3-(trifluoromethyl)benzamide]	1 (Class 1: The value of percent of control at 10^−7 M was less than 40% or the value of IC50 was less than 50 nM.)
Cc1nn(-c2ccccc2)nc1C(=O)N[C@H]1CC[C@@H](Nc2nccc(N(C)C)n2)CC1 [compound 325, N-(cis-4-{[4-(dimethylamino)pyrimidin-2-yl]amino}cyclohexyl)-5-methyl-2-phenyl-2H-1,2,3-triazole-4-carboxamide]	1 (Class 1: The value of percent of control at 10^−7 M was less than 40% or the value of IC50 was less than 50 nM.)
COc1ccc(Oc2ccc([N+](=O)[O-])cc2C(=O)N[C@H]2CC[C@@H](Nc3nccc(N(C)C)n3)CC2)cc1 [compound 326, N-(cis-4-{[4-(dimethylamino)pyrimidin-2-yl]amino}cyclohexyl)-2-(4-methoxyphenoxy)-5-nitrobenzamide]	1 (Class 1: The value of percent of control at 10^−7 M was less than 40% or the value of IC50 was less than 50 nM.)
CN(C)c1ccnc(N[C@H]2CC[C@@H](NC(=O)c3cccc4ccccc34)CC2)n1 [compound 327]	3 (Class 3 The value of percent of control at 10^−7 M was more than 60% or the value of IC50 was more than 200 nM.)
CN(C)c1ccnc(N[C@H]2CC[C@@H](NC(=O)c3ccc4ccccc4c3)CC2)n1 [compound 328]	3 (Class 3 The value of percent of control at 10^−7 M was more than 60% or the value of IC50 was more than 200 nM.)
CN(C)c1ccnc(N[C@H]2CC[C@@H](NC(=O)c3ccc([N+](=O)[O-])o3)CC2)n1 [compound 329]	3 (Class 3 The value of percent of control at 10^−7 M was more than 60% or the value of IC50 was more than 200 nM.)
CN(C)c1ccnc(N[C@H]2CC[C@@H](NC(=O)COc3ccccc3)CC2)n1 [compound 330, N-(cis-4-{[4-(dimethylamino)pyrimidin-2-yl]amino}cyclohexyl)-2-phenoxyacetamide]	2 (Class 2: The value of percent of control at 10^−7 M was from 40% to 60% or the value of IC′50 was from 50 nM to 200 nM.)
CN(C)c1ccnc(N[C@H]2CC[C@@H](NC(=O)COc3ccccc3[N+](=O)[O-])CC2)n1 [compound 331]	3 (Class 3 The value of percent of control at 10^−7 M was more than 60% or the value of IC50 was more than 200 nM.)
CN(C)c1ccnc(N[C@H]2CC[C@@H](NC(=O)c3cnc4ccccc4n3)CC2)n1 [compound 332]	1 (Class 1: The value of percent of control at 10^−7 M was less than 40% or the value of IC50 was less than 50 nM.)
COc1cc(C(=O)N[C@H]2CC[C@@H](Nc3nccc(N(C)C)n3)CC2)cc(OC)c1OC [compound 333]	3 (Class 3 The value of percent of control at 10^−7 M was more than 60% or the value of IC50 was more than 200 nM.)
CN(C)c1ccnc(N[C@H]2CC[C@@H](NC(=O)c3cccc(C(F)(F)F)c3)CC2)n1 [compound 334, N-(cis-4-{[4-(dimethylamino)pyrimidin-2-yl]amino}cyclohexyl)-3-(trifluoromethyl)benzamide]	2 (Class 2: The value of percent of control at 10^−7 M was from 40% to 60% or the value of IC′50 was from 50 nM to 200 nM.)
CN(C)c1ccnc(N[C@H]2CC[C@@H](NC(=O)c3ccc(C(F)(F)F)cc3)CC2)n1 [compound 335]	3 (Class 3 The value of percent of control at 10^−7 M was more than 60% or the value of IC50 was more than 200 nM.)
CN(C)c1ccnc(N[C@H]2CC[C@@H](NC(=O)c3ccccc3OC(F)(F)F)CC2)n1 [compound 336]	3 (Class 3 The value of percent of control at 10^−7 M was more than 60% or the value of IC50 was more than 200 nM.)

SMILES	class
COc1cc(COC(=O)N[C@H]2CC[C@@H](Nc3nccc(N(C)C)n3)CC2)c([N+](=O)[O-])cc1OC [compound 337]	3 (Class 3 The value of percent of control at 10^−7 M was more than 60% or the value of IC50 was more than 200 nM.)
CN(C)c1ccnc(N[C@H]2CC[C@@H](NC(=O)CCCOc3ccccc3)CC2)n1 [compound 338]	3 (Class 3 The value of percent of control at 10^−7 M was more than 60% or the value of IC50 was more than 200 nM.)
COc1ccc(Br)c(C(=O)N[C@H]2CC[C@@H](Nc3nccc(N(C)C)n3)CC2)c1 [compound 339]	3 (Class 3 The value of percent of control at 10^−7 M was more than 60% or the value of IC50 was more than 200 nM.)
CN(C)c1ccnc(N[C@H]2CC[C@@H](NC(=O)COc3c(F)c(F)c(F)c(F)c3F)CC2)n1 [compound 340, N-(cis-4-{[4-(dimethylamino)pyrimidin-2-yl]amino}cyclohexyl)-2-(pentafluorophenoxy)acetamide]	2 (Class 2: The value of percent of control at 10^−7 M was from 40% to 60% or the value of IC′50 was from 50 nM to 200 nM.)
COc1ccc(CC(=O)N[C@H]2CC[C@@H](Nc3nccc(N(C)C)n3)CC2)cc1OC [compound 341]	3 (Class 3 The value of percent of control at 10^−7 M was more than 60% or the value of IC50 was more than 200 nM.)
CN(C)c1ccnc(N[C@H]2CC[C@@H](NC(=O)c3ccc(F)c(F)c3F)CC2)n1 [compound 342]	3 (Class 3 The value of percent of control at 10^−7 M was more than 60% or the value of IC50 was more than 200 nM.)
CN(C)c1ccnc(N[C@H]2CC[C@@H](NC(=O)C3CCCC3)CC2)n1 [compound 343]	3 (Class 3 The value of percent of control at 10^−7 M was more than 60% or the value of IC50 was more than 200 nM.)
CN(C)c1ccnc(N[C@H]2CC[C@@H](NC(=O)c3ccc(F)cc3F)CC2)n1 [compound 344]	3 (Class 3 The value of percent of control at 10^−7 M was more than 60% or the value of IC50 was more than 200 nM.)
CN(C)c1ccnc(N[C@H]2CC[C@@H](NC(=O)CCc3ccccc3)CC2)n1 [compound 345]	3 (Class 3 The value of percent of control at 10^−7 M was more than 60% or the value of IC50 was more than 200 nM.)
CN(C)c1ccnc(N[C@H]2CC[C@@H](NC(=O)c3cc(F)c(F)c(F)c3F)CC2)n1 [compound 346]	3 (Class 3 The value of percent of control at 10^−7 M was more than 60% or the value of IC50 was more than 200 nM.)
CCOc1ccc2ccccc2c1C(=O)N[C@H]1CC[C@@H](Nc2nccc(N(C)C)n2)CC1 [compound 347]	3 (Class 3 The value of percent of control at 10^−7 M was more than 60% or the value of IC50 was more than 200 nM.)
CN(C)c1ccnc(N[C@H]2CC[C@@H](NC(=O)c3c(F)c(F)c(F)c(F)c3F)CC2)n1 [compound 348]	3 (Class 3 The value of percent of control at 10^−7 M was more than 60% or the value of IC50 was more than 200 nM.)
CN(C)c1ccnc(N[C@H]2CC[C@@H](NC(=O)c3ccc(SC(F)(F)F)cc3)CC2)n1 [compound 349]	3 (Class 3 The value of percent of control at 10^−7 M was more than 60% or the value of IC50 was more than 200 nM.)
CN(C)c1ccnc(N[C@H]2CC[C@@H](NC(=O)c3sc(Cl)c(Cl)c3Cl)CC2)n1 [compound 350]	3 (Class 3 The value of percent of control at 10^−7 M was more than 60% or the value of IC50 was more than 200 nM.)
CN(C)c1ccnc(N[C@H]2CC[C@@H](NC(=O)COc3cccc(Cl)c3)CC2)n1 [compound 351, 2-(3-chlorophenoxy)-N-(cis-4-{[4-(dimethylamino)pyrimidin-2-yl]amino}cyclohexyl)acetamide]	1 (Class 1: The value of percent of control at 10^−7 M was less than 40% or the value of IC50 was less than 50 nM.)
Cc1onc(-c2c(Cl)cccc2Cl)c1C(=O)N[C@H]1CC[C@@H](Nc2nccc(N(C)C)n2)CC1 [compound 352, 3-(2,6-dichlorophenyl)-N-(cis-4-{[4-(dimethylamino)pyrimidin-2-yl]amino}cyclohexyl)-5-methylisoxazole-4-carboxamide]	1 (Class 1: The value of percent of control at 10^−7 M was less than 40% or the value of IC50 was less than 50 nM.)
CN(C)c1ccnc(N[C@H]2CC[C@@H](NC(=O)c3cccnc3Oc3ccccc3)CC2)n1 [compound 353, N-(cis-4-{[4-(dimethylamino)pyrimidin-2-yl]amino}cyclohexyl)-2-phenoxynicotinamide]	2 (Class 2: The value of percent of control at 10^−7 M was from 40% to 60% or the value of IC′50 was from 50 nM to 200 nM.)
CN(C)c1ccnc(N[C@H]2CC[C@@H](NC(=O)c3cccnc3Sc3ccccc3)CC2)n1 [compound 354]	3 (Class 3 The value of percent of control at 10^−7 M was more than 60% or the value of IC50 was more than 200 nM.)
Cc1ccc(Oc2ncccc2C(=O)N[C@H]2CC[C@@H](Nc3nccc(N(C)C)n3)CC2)cc1 [compound 355, N-(cis-4-{[4-(dimethylamino)pyrimidin-2-yl]amino}cyclohexyl)-2-(4-methylphenoxy)nicotinamide]	1 (Class 1: The value of percent of control at 10^−7 M was less than 40% or the value of IC50 was less than 50 nM.)
